{"source": "patent US6884600B1", "about": "“Protein phosphatase-1 catalytic subunit interactions” (Medical Research Council London, priority 1996, dated 2005)", "key": {"PP1GL": {"tested_on": "PP1GL", "experiment": "Phosphorylase phosphatase activity of PP1GL (hepatic glycogen particles)", "type": "biochemical, rat", "experimental": "Hepatic glycogen particles were diluted in assay buffer to 0.6 phosphorylase phosphatase (PhP) mU per ml, incubated for 15 minutes at 30° C. with GM-(G63-T93) (closed circles), GM-(G63-K80) (open circles) or GM-(G63-N75) (closed triangles) and assayed as described in Example 1. The open triangles show the effect of GM-(G63-N75) which had been phosphorylated at Ser67 by PKA (pGM-(G63-N75)). Similar results were obtained in four experiments.\n(A) Hepatic glycogen protein particles containing PP1-GL were diluted and incubated for 15 min at 30° C. with the indicated concentrations of either M110[M1-F38] (open circles) or M110[M1-K35] (closed circles) and the phosphatase reactions were initiated by addition of ^32P-labelled glycogen phosphorylase. The results are expressed as a percentage of the activity determined in control incubations where the M110 peptides were omitted. Similar results were obtained in three separate experiments. (B) The experiment was carried out as in (A), except that the peptide GM[G63-N75] (“wild type”, WT) and variants in which either Val 66 (V66A) (closed triangles) or Phe 68 (F68A) (closed circles) were changed to Ala, were used instead of the M110 peptides. Similar results were obtained in three separate experiments.\n(§1) The myosin-associated form of PP1 (PP1M) was from chicken gizzard and the glycogen-associated form of PP1 (PP1G) from rabbit skeletal muscle. The β isoform of PP1c was released from PP1G by incubation for 2 hours in 2M LiBr, then purified by gel-filtration on a 30×1 cm column of Superose 12 (Pharmacia, Milton Keynes, U.K.) in the presence of 0.5M LiBr. Glycogen protein particles from rat liver were used as the source of hepatic PP1G Digoxygenin-labelled PP1c (γ1-isoform, hereafter termed PP1) was prepared as in [9]. GL was expressed in E. coli as a glutathione-S-transferase (GST) fusion protein [7], termed GST-GL. The catalytic subunit of PP2A from bovine heart (PP2AC) was provided by Dr R. MacKintosh in this Unit. The phosphorylatable myosin light chain (MLC20) and heavy meromyosin from chicken gizzard were a gift from Dr M. Ikebe (Case Western Reserve University, Cleveland, USA). Thrombin and benzamidine-Agarose were purchased from Sigma (Poole, UK).\n(§2) ^32P-labelled rabbit skeletal muscle phosphorylase a (containing 1.0 mol phosphate per mol subunit) was prepared by phosphorylation with phosphorylase kinase, ^32P-labelled rabbit skeletal muscle glycogen synthase (containing 1.5 mol/mol subunit in the sites 3 region) was prepared by phosphorylation with glycogen synthase kinase-3 [24]). ^32P-labelled chicken gizzard MLC20 and ^32P-labelled chicken gizzard heavy meromyosin (containing 1.0 mol phosphate per mol subunit) were prepared by phosphorylation with smooth muscle myosin light chain kinase. The dephosphorylation of phosphorylase a (10 μM), glycogen synthase (1 μM) and MLC20 (1 μM) and heavy meromyosin (1 μM) was carried out as in [24]. One unit of activity (U) was that amount which released […] of phosphate in one minute.\n(§3) PP1c was isolated from the rabbit skeletal muscle PP1-GM complex as described previously (Johnson et al, 1996). Glycogen particles isolated from rat liver (Schelling el al, 1988) served as the source of PP1-GL. The dephosphorylation of glycogen phosphorylase (10 μM) and the isolated MLC20 of smooth muscle myosin (1 μM) by PP1c was carried out as described previously (Cohen et al., 1988; Alessi et al., 1992)."}, "PP1c [1]": {"molecular_target": "T1, PP1c (Oryctolagus cuniculus, UniProt P62143)", "T1 construct": "from tissue; host or cells: rabbit skeletal muscle (PP1G dissociated with LiBr)", "T1 sequence (P62143 whole entry)": "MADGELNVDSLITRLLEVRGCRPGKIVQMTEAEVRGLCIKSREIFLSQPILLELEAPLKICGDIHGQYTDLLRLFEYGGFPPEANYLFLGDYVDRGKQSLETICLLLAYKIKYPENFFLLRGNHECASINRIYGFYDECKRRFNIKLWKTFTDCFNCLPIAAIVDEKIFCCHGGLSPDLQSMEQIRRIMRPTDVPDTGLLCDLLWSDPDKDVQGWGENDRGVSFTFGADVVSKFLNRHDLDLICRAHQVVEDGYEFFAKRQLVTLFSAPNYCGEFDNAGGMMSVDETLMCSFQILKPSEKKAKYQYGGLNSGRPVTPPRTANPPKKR", "experiment": "Phosphorylase phosphatase activity of PP1c", "type": "biochemical, rabbit", "experimental": "(§4) A,B; Effects of M110-(M1-E309) (closed circles), M110-(M1-F38) (open circles) and M110-(D39-E309) (open triangles) on the MLC20 phosphatase […] and phosphorylase phosphatase (B) activities of PP1c were measured after incubating PP1c for 15 minutes at 30° C. with each fragment. The results are presented as a percentage of those obtained in experiments where the M110 fragments were omitted.\n(§5) C,D; The effect of M110-(M1-A150) (open circles) and M110-(L24-Y496) (closed circles) on the MLC20 phosphatase (C) and phosphorylase phosphatase (D) activities of PP1c were measured as in A,B.\n(B) The phosphorylase phosphatase activity of PP1c was assayed as in A in the presence or absence of 1 μM GM-(G63-T93) and 1.0 nM M110-(M1-E309). The results are presented (SEM for three experiments) as a percentage of the PP1c activity measured in the absence of GM-(63-T93), M110-(M1-F38) or M110-(M1-E309).\nas §1, §2, §3"}, "PP1 and PP2A": {"tested_on": "PP1 and PP2A", "details": "refs [17], [19]; cited from earlier work"}, "PP1c (γ1-isoform)": {"molecular_target": "PP1c (γ1-isoform) (Homo sapiens, UniProt P36873)", "sequence (P36873 whole entry, the tested form may be a part, canonical isoform)": "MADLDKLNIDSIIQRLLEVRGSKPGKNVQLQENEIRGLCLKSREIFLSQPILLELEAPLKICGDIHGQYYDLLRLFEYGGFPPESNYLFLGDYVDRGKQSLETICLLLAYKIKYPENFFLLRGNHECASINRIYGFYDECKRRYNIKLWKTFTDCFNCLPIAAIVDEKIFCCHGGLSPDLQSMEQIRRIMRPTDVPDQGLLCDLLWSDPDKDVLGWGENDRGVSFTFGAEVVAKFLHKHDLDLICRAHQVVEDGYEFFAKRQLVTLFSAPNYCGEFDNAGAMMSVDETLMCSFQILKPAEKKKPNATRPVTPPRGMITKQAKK", "experiment": "Far Western: GST-GM fusion proteins probed with digoxygenin-labelled PP1γ", "type": "binding", "details": "GST-fusion proteins on blot probed with digoxygenin-labelled PP1γ", "text": "GST-GM fusion proteins were electrophoresed on 10% SDS/polyacrylamide gels and stained with Coomassie blue (lanes 1-3) or, after transfer to nitrocellulose, probed with digoxygenin-labelled PP1γ (lanes 4-6) as in [9]. Lanes 1 and 4, GST-GM-(E2-D118); Lanes 2 and 5, GST-GM-(H100-P350); Lanes 3 and 6, GST. The positions of the marker proteins glycogen phosphorylase (97 kDa), bovine serum albumin (66 kDa), ovalbumin (43 kDa), carbonic anhydrase (29 kDa) and soybean trypsin inhibitor (20 kDa) are indicated.\nas §1, with “Thrombin and benzamidine-Agarose were purchased from Sigma (Poole, UK).” left out"}, "PP1c [2]": {"molecular_target": "T1, PP1c", "experiment": "MLC20 (myosin P-light chain) phosphatase activity of PP1c", "type": "biochemical", "experimental": "as §4, §5\n(A) The MLC20 phosphatase activity of PP1c was assayed after incubation for 15 minutes at 30° C. in the presence or absence of 1 μM GM-(G63-T93) and either 0.1 μM M110-(M1-F38) or 0.1 nM M110-(M1-E309).\n(1-38, open circles) or M110[M1-K35] (1-35, closed circles) were incubated with PP1c for 15 min at 30° C. and reactions started with the ^32P-labelled MLC20 substrate. The results are expressed as a % of the activity determined in control incubations where the M110 peptides were omitted (100%). Similar results were obtained in three separate experiments.\nas §1, §2, §3\n^32P-labelled myosin P-light chains containing 1.0 mol phosphate per mol subunit was prepared by phosphorylation with smooth muscle myosin light chain kinase. The dephosphorylation of myosin P-light chain (1 μM) was carried out as in [4] and one unit of activity (U) was that amount which catalysed the release of 1 μmole of phosphate in one min. When assaying PP1M in immunoprecipitates from the myofibrillar extracts, the tubes were shaken continuously and 3 nM okadaic acid was included to inhibit any PP2A present."}, "PP1c [3]": {"molecular_target": "T1, PP1c", "experiment": "Glycogen synthase phosphatase activity of PP1c", "type": "biochemical, rabbit", "experimental": "The glycogen synthase phosphatase activity of PP1c was measured after a 15 minute incubation at 30° C. with the indicated concentrations of M110-(M1-F38) and M110-(M1-E309). Similar results were obtained in three different experiments.\nas §2"}, "PP1c [4]": {"molecular_target": "T1, PP1c", "experiment": "Dephosphorylation of heavy meromyosin by PP1c", "type": "biochemical, rabbit", "details": "data not shown", "experimental": "as §2"}}, "note": "Like-named read-outs stand apart in the source and are kept apart here. No end group written: not given here.", "data": [{"compound": "GM-(G63-N75): synthetic 13 residue peptide, residues 63-75 of GM (GRRVSFADNFGFN)", "values": [{"measurement": "effect on the phosphorylase phosphatase activity of PP1GL", "setting": "PP1GL; hepatic glycogen particles containing PP1-GL", "result": "increased the phosphorylase phosphatase activity of PP1GL, but were less effective than GM-(G63-T93)"}, {"measurement": "effect on the phosphorylase phosphatase activity of PP1c", "setting": "PP1c [1]; at concentrations up to 10 μM", "result": "did not increase the phosphorylase phosphatase activity of PP1c significantly"}]}, {"compound": "C=C1[C@@H](O)[C@@H]2O[C@]3(CC[C@H](/C=C/[C@@H](C)[C@@H]4CC(C)=C[C@@]5(O[C@H](C[C@@](C)(O)C(=O)O)CC[C@H]5O)O4)O3)CC[C@H]2O[C@@H]1[C@@H](O)C[C@H](C)[C@H]1O[C@@]2(CCCCO2)CC[C@H]1C", "note": "[okadaic acid]", "values": [{"measurement": "relative potency as inhibitor of PP1 and PP2A", "setting": "PP1 and PP2A", "result": "a much more potent inhibitor of PP2A than PP1"}]}, {"compound": "GST: glutathione-S-transferase [reference compound]", "values": [{"measurement": "interaction with PP1 in Far Western experiments", "setting": "PP1c (γ1-isoform)", "result": "did not interact with PP1c"}, {"measurement": "effect on the phosphorylase phosphatase activity of PP1c", "setting": "PP1c [1]", "result": "no effect"}, {"measurement": "effect on the MLC20 phosphatase activity of PP1c", "setting": "PP1c [2]", "result": "no effect"}]}, {"compound": "GM-(E81-T93): peptide generated by cleaving GM-(G63-T93) with Lys-C endoproteinase (DCWELPSASTTFD; UniProt Q16821 81-93, looked up, fragment)", "values": [{"measurement": "effect on the phosphorylase phosphatase activity of PP1GL", "setting": "PP1GL; at concentrations up to 10 μM", "result": "no effect"}, {"measurement": "effect on the phosphorylase phosphatase activity of PP1c", "setting": "PP1c [1]; at concentrations up to 10 μM", "result": "no effect"}]}, {"compound": "CO[C@H]([C@H](O)CC(=O)[C@@H](C)[C@@H](O)CC[C@@H](C)[C@@H]1O[C@]2(CC[C@@H](C)[C@H](CC[C@H](C)C(C)=O)O2)CC[C@@H]1C)[C@H](OC(=O)C[C@@H](O)C1=C(C)C(=O)OC1=O)C(C)C", "note": "[tautomycin]", "values": [{"measurement": "relative potency as inhibitor of PP1 and PP2A", "setting": "PP1 and PP2A", "result": "a much more potent inhibitor of PP1 than PP2A"}]}, {"compound": "MKMADAKQKRNEQLKRWIGSETDLEPPVVKRQKTKVKF [M110-(M1-F38)]", "values": [{"measurement": "displacement of GL from PP1c", "setting": "PP1GL", "result": "capable of displacing GL from PP1GL"}, {"measurement": "increase in the phosphorylase phosphatase activity of PP1GL", "setting": "PP1GL; 10 μM peptide", "result": 3.5, "unit": "fold"}, {"measurement": "effect on the phosphorylase phosphatase activity of PP1c", "setting": "PP1c [1]", "result": "did not inhibit the phosphorylase phosphatase activity of PP1c"}, {"measurement": "effect on the phosphorylase phosphatase activity of PP1c", "setting": "PP1c [1]; each peptide individually, at concentrations up to 1 μM", "result": "no effect"}, {"measurement": "EC50", "setting": "PP1c [2]", "result": 0.01, "unit": "µM"}, {"measurement": "concentration needed to modulate the specificity of PP1c compared to thrombin-cleaved M110-(M1-E309)", "setting": "PP1c [2]", "result": "at least 100 fold higher"}, {"measurement": "effect on the MLC20 phosphatase activity of PP1c", "setting": "PP1c [2]", "result": "stimulate the MLC20 phosphatase activity of PP1c to the same extent as M110-(M1-E309)"}, {"measurement": "increase in PP1c activity towards MLC20 (maximal activation)", "setting": "PP1c [2]", "result": 3, "unit": "fold"}, {"measurement": "peptide concentration at maximal activation of the myosin light chain phosphatase activity of PP1c", "setting": "PP1c [2]", "result": 1, "unit": "µM"}, {"measurement": "effect on the dephosphorylation of glycogen synthase by PP1c", "setting": "PP1c [3]", "result": "greatly enhanced"}, {"measurement": "effect on the dephosphorylation of heavy meromyosin by PP1c", "setting": "PP1c [4]", "result": "stimulated the dephosphorylation of heavy meromyosin in a similar manner to the dephosphorylation of MLC20"}]}]}
